In brackets after ≈: the same amount, converted by molar mass. Like-named read-outs stand apart in the source and are kept apart here.
Key:
[1] = system: Staphylococcus aureus 209P; assay: Minimum inhibitory concentration, serial dilution method, Brain Heart Infusion broth; format: cell-based; conditions: read-out: Minimum Inhibitory Concentration
[2] = system: Bacillus subtilis ATCC 6633; assay: Minimum inhibitory concentration, serial dilution method; format: cell-based; conditions: ATCC6633; Bacillus subtilis ATCC 6633; 24 hours, 37° C; read-out: Minimum Inhibitory Concentration
[3] = system: Bacillus subtilis PCI 219; assay: as above; format: cell-based; conditions: PCI219; Bacillus subtilis PCI 219; 24 hours, 37° C; read-out: Minimum Inhibitory Concentration
[4] = system: Streptococcus hemolyticus D-90; assay: as above; format: cell-based; conditions: Streptococcus pyogenes, read-out: Minimum Inhibitory Concentration
Sarcina lutea = assay: as above; format: cell-based; conditions: Micrococcus luteus; Sarcina lutea; 24 hours, 37° C; read-out: Minimum Inhibitory Concentration
[5] = system: Diplococcus pneumoniae Type III; assay: as above; format: cell-based; conditions: Streptococcus pneumoniae; Diplococcus pneumoniae Type III; 24 hours, 37° C; read-out: Minimum Inhibitory Concentration
[6] = system: Streptococcus faecalis ATCC 8043; assay: as above; format: cell-based; conditions: Enterococcus faecalis, ATCC8043; Streptococcus faecalis ATCC 8043; 24 hours, 37° C; read-out: Minimum Inhibitory Concentration
[7] = system: Staphylococcus aureus Smith; assay: as above; format: cell-based; conditions: Staphylococcus aureus Smith; 24 hours, 37° C; read-out: Minimum Inhibitory Concentration
[8] = system: Streptococcus hemolyticus Cook; assay: as above; format: cell-based; conditions: Streptococcus pyogenes; Streptococcus hemolyticus Cook; 24 hours, 37° C; read-out: Minimum Inhibitory Concentration
[9] = system: Diplococcus pneumoniae Type I; assay: as above; format: cell-based; conditions: Streptococcus pneumoniae; Diplococcus pneumoniae Type I; 24 hours, 37° C; read-out: Minimum Inhibitory Concentration
[10] = system: Staphylococcus aureus Terajima; assay: as above; format: cell-based; conditions: read-out: Minimum Inhibitory Concentration
[11] = system: Bacillus anthracis No. 119; assay: microbe, parasite or virus in culture; format: cell-based; conditions: NO.119, 24 h, read-out: Minimum Inhibitory Concentration
[12] = system: Staphylococcus aureus 209P; conditions: 7th day, 10 mice per group
[13] = system: Corynebacterium diphtheriae Type intermedius; assay: Minimum inhibitory concentration, serial dilution method; format: cell-based; conditions: Corynebacterium diphtheriae Type intermedius; 24 hours, 37° C; read-out: Minimum Inhibitory Concentration
[14] = system: Corynebacterium diphtheriae Type gravis; assay: as above; format: cell-based; conditions: Corynebacterium diphtheriae Type gravis; 24 hours, 37° C; read-out: Minimum Inhibitory Concentration
[15] = system: Staphylococcus albus 1200A; assay: as above; format: cell-based; conditions: read-out: Minimum Inhibitory Concentration
[16] = system: Streptococcus pyogenes D-58; assay: as above; format: cell-based; conditions: D58; Streptococcus pyogenes D-58; 24 hours, 37° C; read-out: Minimum Inhibitory Concentration
[17] = system: gram-negative and gram-positive bacteria; assay: Antibacterial activity (in words); format: cell-based
[18] = Staphylococcus aureus 209P, 24 hours, 37° C
[19] = D90, Streptococcus hemolyticus D-90, 24 hours, 37° C
[20] = Staphylococcus aureus Terajima, 24 hours, 37° C
[21] = Staphylococcus albus 1200A, 24 hours, 37° C

Compound	MIC [2]	MIC [3]	MIC (Sarcina lutea)	MIC [5]	MIC [6]	MIC [7]	MIC [8]	MIC [9]	MIC [11]	Rate of surviving mice in each group of mice ([12]; 100 mg/kg oral)	Rate of surviving mice in each group of mice ([12]; 200 mg/kg oral)	MIC [13]	MIC [14]	MIC [16]	MIC [1, 18]	MIC [4, 19]	MIC [10, 20]	MIC [15, 21]	antibacterial activity [17]	also measured
CCC(=O)OC1CC(=O)OC(C)CC=CC=CC(OC(C)=O)C(C)CC(CC=O)C(OC2OC(C)C(OC3CC(C)(O)C(OC(=O)CC)C(C)O3)C(N(C)C)C2OC(C)=O)C1OC (stereo not drawn) [9,2'-di-acetyl SF-837 substance, reference compound]	3.12 µg/mL (≈ 3.47 µM)	0.78 µg/mL (≈ 0.869 µM)	0.19 µg/mL (≈ 0.212 µM)	0.09 µg/mL (≈ 0.1 µM)	3.12 µg/mL (≈ 3.47 µM)	0.39 µg/mL (≈ 0.434 µM)	0.19 µg/mL (≈ 0.212 µM)	0.09 µg/mL (≈ 0.1 µM)	1.56 µg/mL (≈ 1.74 µM)	0/10	6/10	0.19 µg/mL (≈ 0.212 µM)	0.39 µg/mL (≈ 0.434 µM)	0.19 µg/mL (≈ 0.212 µM)						MIC ([1]; Staphylococcus aureus, 209P, 24 h): 1.56 µg/mL (≈ 1.74 µM); MIC ([4]; D90, 24 h): 1.56 µg/mL (≈ 1.74 µM); MIC ([10]; Staphylococcus aureus, 24 h): 1.56 µg/mL (≈ 1.74 µM); MIC ([15]; Staphylococcus, 1200A, 24 h): 1.56 µg/mL (≈ 1.74 µM)
CCC(=O)OC1CC(=O)OC(C)CC=CC=CC(OC(C)=O)C(C)CC(CC=O)C(OC2OC(C)C(OC3CC(C)(OC(=O)CC)C(OC(=O)CC)C(C)O3)C(N(C)C)C2O)C1OC (stereo not drawn) [Compound No. 6]	1.56 µg/mL (≈ 1.71 µM)	0.78 µg/mL (≈ 0.855 µM)	0.09 µg/mL (≈ 0.0987 µM)	0.09 µg/mL (≈ 0.0987 µM)	0.78 µg/mL (≈ 0.855 µM)	0.39 µg/mL (≈ 0.428 µM)	0.19 µg/mL (≈ 0.208 µM)	0.09 µg/mL (≈ 0.0987 µM)	0.78 µg/mL (≈ 0.855 µM)	6/10	10/10	0.19 µg/mL (≈ 0.208 µM)	0.19 µg/mL (≈ 0.208 µM)	0.19 µg/mL (≈ 0.208 µM)	1.56 µg/mL (≈ 1.71 µM)	0.78 µg/mL (≈ 0.855 µM)	3.12 µg/mL (≈ 3.42 µM)	1.56 µg/mL (≈ 1.71 µM)		
CCC(=O)OC1CC(=O)OC(C)CC=CC=CC(OC(C)=O)C(C)CC(CC=O)C(OC2OC(C)C(OC3CC(C)(OC(C)=O)C(OC(=O)CC)C(C)O3)C(N(C)C)C2O)C1OC (stereo not drawn) [Compound No. 2]	1.56 µg/mL (≈ 1.74 µM)	0.78 µg/mL (≈ 0.869 µM)	0.09 µg/mL (≈ 0.1 µM)	0.09 µg/mL (≈ 0.1 µM)	0.78 µg/mL (≈ 0.869 µM)	0.39 µg/mL (≈ 0.434 µM)	0.19 µg/mL (≈ 0.212 µM)	0.09 µg/mL (≈ 0.1 µM)	0.78 µg/mL (≈ 0.869 µM)	8/10	10/10	0.19 µg/mL (≈ 0.212 µM)	0.19 µg/mL (≈ 0.212 µM)	0.19 µg/mL (≈ 0.212 µM)	1.56 µg/mL (≈ 1.74 µM)	0.78 µg/mL (≈ 0.869 µM)	3.12 µg/mL (≈ 3.47 µM)	1.56 µg/mL (≈ 1.74 µM)		
CCC(=O)OC1C=CC=CCC(C)OC(=O)CC(OC(=O)CC)C(OC)C(OC2OC(C)C(OC3CC(C)(OC(=O)CC)C(OC(=O)CC)C(C)O3)C(N(C)C)C2O)C(CC=O)CC1C (stereo not drawn) [Compound No. 7]	1.56 µg/mL (≈ 1.68 µM)	0.78 µg/mL (≈ 0.842 µM)	0.09 µg/mL (≈ 0.0972 µM)	0.09 µg/mL (≈ 0.0972 µM)	0.78 µg/mL (≈ 0.842 µM)	0.78 µg/mL (≈ 0.842 µM)	0.19 µg/mL (≈ 0.205 µM)	0.19 µg/mL (≈ 0.205 µM)	0.78 µg/mL (≈ 0.842 µM)	5/10	10/10	0.19 µg/mL (≈ 0.205 µM)	0.19 µg/mL (≈ 0.205 µM)	0.09 µg/mL (≈ 0.0972 µM)	0.78 µg/mL (≈ 0.842 µM)	1.56 µg/mL (≈ 1.68 µM)	1.56 µg/mL (≈ 1.68 µM)	1.56 µg/mL (≈ 1.68 µM)		
CCC(=O)OC1CC(=O)OC(C)CC=CC=CC(OC(C)=O)C(C)CC(C=COC(C)=O)C(OC2OC(C)C(OC3CC(C)(OC(=O)CC)C(OC(C)=O)C(C)O3)C(N(C)C)C2O)C1OC (stereo not drawn)																			no antibacterial activity	
9,2' -di-acetyl-18,3" -di-propionyl SF-837 substance																			observed	
CCC(=O)OC=CC1CC(C)C(OC(C)=O)C=CC=CCC(C)OC(=O)CC(OC(=O)CC)C(OC)C1OC1OC(C)C(OC2CC(C)(OC(=O)CC)C(OC(=O)CC)C(C)O2)C(N(C)C)C1O (stereo not drawn) [9-acetyl-18,3"-di-propionyl SF-837 substance]																			Not observed	

From patent US4017607A
